The nature of series [1]: Inhibition of purified recombinant glutathione-S-transferase tagged cdc25 phosphatase (unknown origin) assessed as reduction in p-nitrophenylphosphate phosphatase activity by colorimetry. Further details: species or system Homo sapiens.
In series [2] the target is Cyclin-dependent kinase 1 (Homo sapiens, UniProt P06493). Kind of series: Inhibition of CDC2 kinase (unknown origin) using histone H1 and [32P]-ATP.
A short description of series [3]: Solubility in water at 25 degC sonicated for 10 mins by HPLC method. It is filed as physicochemical.
The subject of series [4] is U2OS. Nature of the series: Induction of telomere architecture perturbations in human U2OS cells assessed as increase in DNA topoisomerase 1 binding to telomeric sequences at cytotoxic IC50 level after 12 hrs by chromatin immunoprecipitation method. It is filed as functional.
Series [5] relates to U2OS. Nature of the series: Induction of telomere architecture perturbations in human U2OS cells assessed as displacement of TRF2 from telomeres at cytotoxic IC50 level after 24 hrs by chromatin immunoprecipitation method. It is filed as functional.
Series [6] deals with U2OS. Nature of the series: Induction of telomere architecture perturbations in human U2OS cells assessed as increase in DNA topoisomerase 1 binding to telomeric sequences at cytotoxic IC50 level after 6 hrs by chromatin immunoprecipitation method. It counts as functional.
Series [7] can be described thus: Growth inhibition of human NCI60 cells. It is filed as functional. As to conditions: Homo sapiens, NCI60.
In series [8] the test system is U2OS. Nature of the series: Induction of telomere architecture perturbations in human U2OS cells assessed as displacement of human DNA topoisomerase 1 from telomeres at cytotoxic IC50 level after 24 hrs by chromatin immunoprecipitation method. It is filed as functional.
The test system of series [9] is U2OS. Nature of the series: Induction of apoptosis in human U2OS cells assessed as increase in caspase-3 catalytic activity at cytotoxic IC50 level after 72 hrs. It is filed as functional.
Series [10] has as its system U2OS. Nature of the series: Induction of telomere architecture perturbations in human U2OS cells assessed as displacement of hPOT1 from telomeres at cytotoxic IC50 level after 12 hrs by chromatin immunoprecipitation method. It is filed as functional.

The structures appear in SMILES notation. In brackets after ≈: the same amount, converted by molar mass.

Cyclin-dependent kinase 1, sequence (P06493 whole entry): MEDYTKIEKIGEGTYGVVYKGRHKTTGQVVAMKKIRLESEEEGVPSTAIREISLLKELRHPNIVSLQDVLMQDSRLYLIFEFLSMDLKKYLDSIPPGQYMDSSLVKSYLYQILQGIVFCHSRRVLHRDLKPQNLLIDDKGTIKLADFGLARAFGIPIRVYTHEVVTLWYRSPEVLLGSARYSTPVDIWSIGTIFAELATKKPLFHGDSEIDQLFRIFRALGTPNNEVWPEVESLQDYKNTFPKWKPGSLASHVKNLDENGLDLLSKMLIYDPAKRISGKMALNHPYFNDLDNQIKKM

The term IC50 denotes the midpoint of a concentration-inhibition curve. For `O=C(Cn1c2ccc(Br)cc2c2nc3ccccc3nc21)NNC(=S)NC1CCCCC1`, the IC50 in [1] turned out to be 25 µM; in [2], 70 µM.

One may read the solubility as how much of the substance goes into solution per volume. Usually GI50 stands for the concentration giving 50% growth inhibition. A lower GI50 goes with more potent growth inhibition. `COc1cc2cn3c4ccc(O)cc4[nH]c(=N)c3c2cc1OC`: the solubility at 10 min in series [3] is 24.5 mM (≈ 7580 µg/mL). The Activity in the series with U2OS [4] was 309%; with U2OS [5], -80%; in the series on U2OS [6], 64%; in the series with U2OS [10] it was -88%. The 50% growth inhibitory concentration (GI50) in series [7] is less than 3.24 µM. Further, in the series with U2OS [8], the “inhibition (INH)” value was 57%. Further, the “fold change (FC)” value in the series with U2OS [9] is given as 23.

For the origin of these results see ChEMBL document CHEMBL3414534, “Water-soluble isoindolo[2,1-a]quinoxalin-6-imines: in vitro antiproliferative activity and molecular mechanism(s) of action” (Eur J Med Chem, 2015).
